Values quoted from earlier work in patent US20080286344A1, “Solid form” (priority 2007, published 2008).

SMILES: Cn1c(=O)c2[nH]cnc2n(C)c1=O [theophylline]
- Solubility in water, g of water for 1 g (1 g active in stated g of water): 100-1000 g water
- Solubility in water (descriptive term) (water): slightly soluble
